This is an account of results in patent publication US20220112217A1, “PYRAZOLOPYRIMIDINE DERIVATIVE AND USE THEREOF AS PI3K INHIBITOR” (MEDSHINE DISCOVERY INC., priority 2018, published 2022).

In data set [1] the test system is TMD-8 cell. The data set is described as follows: TMD-8 cell viability test (CellTiter-Glo, 72 h). Particulars: Homo sapiens, TMD8. Format: cell-based. As to the method: 7) After incubation, readings at 620 and 665 nm on EnVingen were recorded. • <2> TMD-8 cell viability test • 1) Cell Culture
Cells were regularly passaged. Cells at logarithmic growth phase were transferred to the plate. • 2) Plating • (1). Cells were stained with trypan blue and viable cells were counted. • (2). Cell concentration was adjusted to 7000 cells/well • (3). 90 μL of cell suspension was added to each well of the plate and cell-free medium was added to blank control wells. • (4). The plate was incubated overnight at 37° C., 5% CO2 and 100% relative humidity in an incubator. • 3) Preparation of Plate Containing Compound Stock
(1). Preparation of plate containing 400× compound stock: Compounds were diluted from the highest concentration gradient to lowest concentration with DMSO. • 4) Preparation of 10× compound working solution and treatment • (1). Preparation of 10× compound working solution: 78 μL of cell culture medium was added to a V-bottom 96-well plate, and 2 μL of compound stock solution was pipetted from the plate containing 400× compound stock into the cell cultures of 96-well plate. 2 μL of DMSO was added to the vehicle control wells and blank control wells. After compounds or DMSO was added, the mixture was well mixed by a pipette. • (2). 10 μL of DMSO-cell culture medium mixture solution was added to the vehicle control wells and blank control wells. The final concentration of DMSO was 0.25%. • (3). The 96-well cell plate was incubated in the incubator for another 72 h. • 5) CellTiter-Glo Luminescent Cell Viability Assay
The following procedure was performed according to the instructions of Promega CellTiter-Glo luminescent cell viability assay kit (Promega-G7573). • (1). CellTiter-Glo buffer was thawed and let stand at room temperature. • (2). The CellTiter-Glo substrate was let stand at room temperature. • (3). The CellTiter-Glo buffer was added to a flask of CellTiter-Glo substrate to dissolve the substrate, thereby preparing a CellTiter-Glo working solution. • (4). The solution was vortexed to completely dissolve the substrate. • (5). The plate was incubated at room temperature for 30 min for equilibration. • (6). 50 μL (equal to half the volume of cell culture medium in each well) of CellTiter-Glo working solution was added to each well. The plate was covered by aluminum foil to avoid light. • (7). The plate was shaken on an orbital shaker for 2 min to induce cell lysis. • (8). The plate was let stand at room temperature for 10 min to stabilize the luminescence signals. • (9). The luminescence signals were detected on 2104 EnVision plate reader.
A general note: ATP-based viability assays read luminescence as a measure of living cells.

Data set [2] is described as follows: In vivo DMPK study, single dose in female Balb/c mice. Conditions: mice. As to the method: Objective: To evaluate the plasma concentration of the compounds and pharmacokinetics after a single dose in female Balb/c mice.
Procedures: 8 healthy adult female Balb/c mice were randomized, 4 for intravenous administration and 4 for oral administration. The compounds were mixed with a proper amount of vehicle for intravenous injection (DMSO/PEG200/water (5:45:50 v/v/v)). The mixture was vortexed and treated with ultrasound to give a 1.0 mg/mL clear solution. The clear solution was filtered through a microporous membrane filter for later use. For the oral group, the vehicle was 0.5% MC/0.2% Tween 80. The compound was mixed with the vehicle, and the mixture was vortexed and ultrasonically treated to give 1.0 mg/mL uniform suspension for later use. The mice were administered intravenously at 1 mg/kg or orally at 3 mg/kg. Whole blood was collected at certain time points, and plasma was separated. The drug concentration was measured by LC-MS/MS, and pharmacokinetic parameters were calculated using
Phoenix WinNonlin software (Pharsight, USA).

Experiment in data set [3]: as above
Particulars: mouse, plasma, po, 1 mg/kg, (1 mpk).

Data set [4] concerns the target PI3K delta (Homo sapiens, UniProt O00329). In words: In vitro enzyme activity assay (ADP-Glo lipid kinase), PI3K delta.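 Also: kinase reaction run at 23 °C, then leftover ATP depleted and the ADP formed turned back into ATP, with the luciferin/luciferase signal read as kinase activity.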 Particulars: PI3Kδ IC50, ATP 40 μM, PIP2:3PS 50 μM, 120 min.
Method: (§1) An appropriate substrate and ATP were incubated at a suitable condition for lipid kinase reaction, followed by a two-step detection of kinase activity using an ADP-Glo™ kit. Step I: The kinase reaction was terminated and residual ATP was completely removed, leaving ADP only; Step II: A kinase assay reagent was added to convert ADP to ATP by a luciferin/luciferase reaction. Finally, a fluorescence output value was detected and converted into kinase activity.
(§2) • 2) Kit: ADP-Glo™ lipid kinase and PIP2:3PS kit (Promega #V1792)
The kit comprises: 1 mM PIP2:3PS, 10× lipid dilution buffer, 1 M magnesium chloride, 10 mM ATP, 10 mM ADP, ADP-Glo reagent, detection buffer and substrate. • 3) Plate: OptiPlate-384, white and transparent (PerkinElmer #6007299) Reagent preparation: • 1) 10x reaction buffer: 500 mM HEPES (4-(2-hydroxyethyl)-1-piperazineethanesulfonic acid), pH 7.5, 500 mM NaCl, 9 mM MgCl2; BSA: 10% stock solution, prepared in-house • 2) Condition for final test system: 1× reaction system: 50 mM HEPES, 50 mM NaCl, 3 mM MgCl2, 0.01% BSA (prepared on the day of experiment), 1% DMSO (v/v) +/−compound • 3) Reaction system: 3 μL of enzyme and substrate mixture (1:1) +2 μL of ATP/MgCl2 mixture +5 μL of ADP-Glo reagent +10 μL detection reagent.
The specific experimental procedures are as follows: • 1) Dilution: 50 nL of 100× compound/DMSO solution were transferred into a test plate using Echo • For PI3Kα, the compound was serially diluted by three fold from the highest concentration 0.111 mM to the 10th concentration. • For PI3Kβ/PI3Kδ/PI3Kγ, the compound was serially diluted by three fold from the highest concentration of 1.11 mM to the 10th concentration. • 2) Kinase reaction: • (1) The target compounds were prepared. 50 nL of 100× compound solution or DMSO was added to the corresponding plate • (2) A 3.33 × reaction buffer was prepared • (3) A 3.33× PIP2:3PS solution were prepared; the PIP2:3PS solution should be thawed by vortex for at least 1 min before use • (4) An ATP solution containing 5.25 mM MgCl2 was prepared • (5) 3.33× PI3Kα/PI3Kβ/PI3Kδ/PI3Kγ solutions were prepared • (6) The lipid kinase solution and PIP2:3PS solution were mixed at a volume ratio of 1:1 • (7) The 3.33 × lipid kinase buffer and PIP2:3PS solution were mixed at a volume ratio of 1:1 • (8) 3 μL of the mixed solution of reaction buffer and PIP2:3PS was added to Columns 1 and 2 of the plate • (9) 3 μL of the mixed solution of the enzyme and PIP2:3PS was added to the wells of the plate other than Columns 1 and 2, and was centrifuged for 10 s (1000 rpm). The mixture was incubated at 23° C. for 20 min • (10) 2 μL of ATP solution was added, and the mixture was centrifuged at 1000 rpm and was shaken to mix well • (11) The plate was covered, shaken for about 30 s, and incubated for 2 h at 23° C. • (12) 5 μL of ADP-Glo reagent containing 10 mM MgCl2 was added • (13) The mixture was centrifuged at 1000 rpm for 10 s, covered and shaken for about 30 s, and incubated at 23° C. for 60 min • (14) 10 μL of kinase assay reagent was added • (15) The mixture was centrifuged at 1000 rpm for 10 s, and incubated at 23° C. for 60 min • (16) Fluorescence values were measured by an Envision system. • 2.
In data set [5] the target is PI3K gamma (Homo sapiens, UniProt P48736). The data set is described as follows: In vitro enzyme activity assay (ADP-Glo lipid kinase), PI3K gamma. Conditions: PI3Kγ IC50, ATP 25 μM, PIP2:3PS 50 μM, 120 min. On the technique in general: In ADP-Glo the light output rises with the ADP produced.
Chain of PI3K gamma (P48736 whole entry): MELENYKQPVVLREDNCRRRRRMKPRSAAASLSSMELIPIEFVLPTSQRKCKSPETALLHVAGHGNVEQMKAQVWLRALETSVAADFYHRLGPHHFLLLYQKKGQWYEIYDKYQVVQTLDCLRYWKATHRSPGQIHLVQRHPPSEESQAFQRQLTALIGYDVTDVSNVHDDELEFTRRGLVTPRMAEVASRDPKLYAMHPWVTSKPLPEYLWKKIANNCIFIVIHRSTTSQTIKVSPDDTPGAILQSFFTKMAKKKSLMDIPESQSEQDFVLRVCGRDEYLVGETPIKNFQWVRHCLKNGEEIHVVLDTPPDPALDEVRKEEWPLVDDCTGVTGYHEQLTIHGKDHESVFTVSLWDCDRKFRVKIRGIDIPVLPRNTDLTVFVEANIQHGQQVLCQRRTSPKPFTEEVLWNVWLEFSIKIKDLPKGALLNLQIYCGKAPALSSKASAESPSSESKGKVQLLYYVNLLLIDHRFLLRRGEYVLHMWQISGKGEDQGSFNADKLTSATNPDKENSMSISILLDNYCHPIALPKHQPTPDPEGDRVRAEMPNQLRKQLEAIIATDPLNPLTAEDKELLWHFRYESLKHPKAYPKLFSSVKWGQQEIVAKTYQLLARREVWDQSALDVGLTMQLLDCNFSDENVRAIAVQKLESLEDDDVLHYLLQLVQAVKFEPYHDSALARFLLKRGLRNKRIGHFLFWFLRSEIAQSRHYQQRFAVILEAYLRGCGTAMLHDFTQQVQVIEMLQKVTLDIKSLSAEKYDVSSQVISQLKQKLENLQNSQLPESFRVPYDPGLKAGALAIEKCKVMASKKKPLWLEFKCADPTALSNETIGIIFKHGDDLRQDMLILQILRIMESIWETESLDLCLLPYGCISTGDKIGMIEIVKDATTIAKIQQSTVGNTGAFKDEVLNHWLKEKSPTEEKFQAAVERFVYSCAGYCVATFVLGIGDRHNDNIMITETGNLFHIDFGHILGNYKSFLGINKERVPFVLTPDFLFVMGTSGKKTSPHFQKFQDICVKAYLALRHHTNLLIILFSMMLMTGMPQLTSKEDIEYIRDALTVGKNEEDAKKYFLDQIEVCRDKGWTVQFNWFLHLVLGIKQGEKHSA
Method: as §1, §2
The mixture was incubated at 23° C. for 20 min • (10) 2 μL of ATP solution was added, and the mixture was centrifuged at 1000 rpm and was shaken to mix well • (11) The plate was covered, shaken for about 30 s, and incubated for 2 h at 23° C. • (12) 5 μL of ADP-Glo reagent containing 10 mM MgCl2 was added • (13) The mixture was centrifuged at 1000 rpm for 10 s, covered and shaken for about 30 s, and incubated at 23° C. for 60 min • (14) 10 μL of kinase assay reagent was added • (15) The mixture was centrifuged at 1000 rpm for 10 s, and incubated at 23° C. for 60 min • (16) Fluorescence values were measured by an Envision system. • 2. […] The mixture was incubated at 37° C./CO2 for 10 min. • 5) The compound was removed by pipette. Lysis buffer was added at 50 μL/well, and the cells wereincubated on a shaker for 30 min. • 6) After the cells were completely lysed, 16 μL of lysate was transferred to a 384-well plate and 4 μL of prepared AC+D2 in the kit was added. (AC: Eu3+-cryptate antibody binds to phosphorylated AKT, while D2 binds to non-phosphorylated AKT) The mixture was incubated at room temperature for 4 h.

The structures appear in SMILES notation.

Chain of PI3K delta (O00329 whole entry): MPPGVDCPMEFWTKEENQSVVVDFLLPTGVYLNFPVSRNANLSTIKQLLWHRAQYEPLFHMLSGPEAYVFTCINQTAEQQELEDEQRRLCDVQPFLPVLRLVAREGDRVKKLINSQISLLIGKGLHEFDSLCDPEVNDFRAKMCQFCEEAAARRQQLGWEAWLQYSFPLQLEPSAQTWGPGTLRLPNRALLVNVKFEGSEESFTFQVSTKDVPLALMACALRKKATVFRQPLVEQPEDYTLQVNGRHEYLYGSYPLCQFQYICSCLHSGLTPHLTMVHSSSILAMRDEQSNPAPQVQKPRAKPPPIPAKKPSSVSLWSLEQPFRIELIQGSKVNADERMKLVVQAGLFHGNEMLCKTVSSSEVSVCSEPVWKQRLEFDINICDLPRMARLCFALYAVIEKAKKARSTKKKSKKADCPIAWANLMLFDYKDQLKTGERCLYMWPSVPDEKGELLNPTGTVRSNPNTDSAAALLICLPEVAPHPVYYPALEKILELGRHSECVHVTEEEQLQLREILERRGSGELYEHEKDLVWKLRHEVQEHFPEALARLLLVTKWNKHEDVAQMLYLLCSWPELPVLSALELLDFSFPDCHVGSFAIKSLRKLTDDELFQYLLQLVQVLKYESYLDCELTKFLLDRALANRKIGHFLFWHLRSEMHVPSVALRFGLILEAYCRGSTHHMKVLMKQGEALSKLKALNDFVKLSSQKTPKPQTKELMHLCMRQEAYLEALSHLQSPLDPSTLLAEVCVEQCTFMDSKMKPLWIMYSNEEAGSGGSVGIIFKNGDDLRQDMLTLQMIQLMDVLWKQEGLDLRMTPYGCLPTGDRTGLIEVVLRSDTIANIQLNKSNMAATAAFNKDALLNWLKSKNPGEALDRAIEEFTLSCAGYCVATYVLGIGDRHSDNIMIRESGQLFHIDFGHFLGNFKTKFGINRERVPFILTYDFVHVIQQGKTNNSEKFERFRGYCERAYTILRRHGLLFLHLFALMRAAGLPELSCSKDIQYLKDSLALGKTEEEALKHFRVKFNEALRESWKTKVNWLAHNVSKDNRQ
Chain of PI3K delta (P27986 whole entry partner): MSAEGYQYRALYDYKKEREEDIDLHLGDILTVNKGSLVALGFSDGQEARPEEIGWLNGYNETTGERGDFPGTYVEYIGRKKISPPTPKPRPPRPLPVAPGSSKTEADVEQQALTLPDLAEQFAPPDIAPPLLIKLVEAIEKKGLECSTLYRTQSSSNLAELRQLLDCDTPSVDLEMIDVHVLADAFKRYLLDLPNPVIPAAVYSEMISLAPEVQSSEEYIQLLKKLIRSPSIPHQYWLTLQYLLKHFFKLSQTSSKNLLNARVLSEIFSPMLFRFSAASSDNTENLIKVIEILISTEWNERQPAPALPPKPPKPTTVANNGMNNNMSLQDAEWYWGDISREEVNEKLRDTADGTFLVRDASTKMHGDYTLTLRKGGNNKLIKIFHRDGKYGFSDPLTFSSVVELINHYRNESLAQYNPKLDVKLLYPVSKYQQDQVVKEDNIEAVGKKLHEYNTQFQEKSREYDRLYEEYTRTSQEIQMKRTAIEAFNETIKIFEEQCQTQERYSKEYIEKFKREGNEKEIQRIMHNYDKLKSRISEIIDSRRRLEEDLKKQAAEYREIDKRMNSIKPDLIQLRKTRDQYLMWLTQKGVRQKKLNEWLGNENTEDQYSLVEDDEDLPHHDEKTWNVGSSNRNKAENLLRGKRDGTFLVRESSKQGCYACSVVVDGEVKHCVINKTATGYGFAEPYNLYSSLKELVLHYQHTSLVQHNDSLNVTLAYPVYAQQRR

As usually defined, the IC50 is the midpoint of a concentration-inhibition curve. A higher IC50 goes with weaker potency in that assay. Broadly, the clearance is the rate of elimination divided by the concentration. For orientation: bioavailability means the share of a dose that reaches the circulation, judged against a reference dose that is usually intravenous. The term Cmax denotes the maximum level reached in the sampled fluid or tissue. For the molecule `CC(C)n1cc(-c2nn(C(C)c3nc4ccc(F)cn4c(=O)c3-c3cccc(F)c3)c3ncnc(N)c23)cn1` (stereo not drawn) [WX038], the IC50 was 2320 nM in data set [1], 39.9 nM in data set [4] and 2440 nM in data set [5]. Besides, in data set [2] (female, Balb/c, mouse, plasma, 1 mg/kg, note lists it as an intravenous parameter, read-out: T1/2 (half-life) (converted)), the half-life was 1.76 h. Also, the clearance in data set [2] (female, Balb/c, mouse, plasma, intravenous 1 mg/kg, read-out: Cl (clearance)) was 14.2 mL/min/kg. Moreover, in data set [2] (female, Balb/c, mouse, plasma, intravenous 1 mg/kg, read-out: Vd (apparent volume of distribution)), the Vd amounted to 1.28 L/kg. In data set [2] (female, Balb/c, mouse, plasma, oral 3 mg/kg vs intravenous 1 mg/kg, read-out: F % (oral bioavailability)), the bioavailability worked out at 83.8%. Besides, the “Oral DNAUC (dose-normalized area under curve)” value in data set [2] (oral) was 1825 nM · h/mpk. The same molecule registered a peak concentration (Cmax) in data set [3] of 1400 nM.
